Source: patent US8008296B2, “Histamine H3 receptor agents, preparation and therapeutic uses” (Eli Lilly and Company, priority 2005, dated 2011)

Molecular target: T1, human histamine 3 receptor (H3R) (Homo sapiens, UniProt Q9Y5N1)
T1 construct: expressed in transfected cells; membranes
Assay: Histamine H3 Receptor Binding Assay (competitive inhibition SPA, [3H] α-methylhistamine, HEK293 H3R8 membranes)
Description: The compounds of the present invention can readily be evaluated by using a competitive inhibition Scintillation Proximity Assay (SPA) based on a H3R binding assay using [3H] a methylhistamine as ligand. Stable cell lines, including but not limited to HEK can be transfected with cDNA coding for H3R to prepare membranes used for the binding assay. The technique is illustrated below (Preparation of Histamine Receptor Subtype Membranes) for the histamine receptor subtypes.
cDNA for the human histamine 3 receptor is cloned and expressed as described in (A. Preparation H1R membranes), above. Transfected cells are selected using G418 ([…]), grown, and tested for histamine binding by the SPA described above. For total binding, cells are assayed in a SPA reaction described above containing 50 mM Tris-HCL (assay buffer), pH 7.6, 1 mg wheat germ agglutinin SPA beads (Amersham Pharmacia Biotech, #RPNQ0001), and 1 nM (3H)-n-alpha-methylhistamine (NEN, NET1027) (total volume per well=200 μl). Thioperimide is added to determine non-specific binding. Several clones are selected as positive for binding, and a single clone (H3R8) is used to prepare membranes for binding studies described above. Five micrograms of protein is used per well in the SPA receptor-binding assay. […]

T1 sequence (Q9Y5N1 whole entry): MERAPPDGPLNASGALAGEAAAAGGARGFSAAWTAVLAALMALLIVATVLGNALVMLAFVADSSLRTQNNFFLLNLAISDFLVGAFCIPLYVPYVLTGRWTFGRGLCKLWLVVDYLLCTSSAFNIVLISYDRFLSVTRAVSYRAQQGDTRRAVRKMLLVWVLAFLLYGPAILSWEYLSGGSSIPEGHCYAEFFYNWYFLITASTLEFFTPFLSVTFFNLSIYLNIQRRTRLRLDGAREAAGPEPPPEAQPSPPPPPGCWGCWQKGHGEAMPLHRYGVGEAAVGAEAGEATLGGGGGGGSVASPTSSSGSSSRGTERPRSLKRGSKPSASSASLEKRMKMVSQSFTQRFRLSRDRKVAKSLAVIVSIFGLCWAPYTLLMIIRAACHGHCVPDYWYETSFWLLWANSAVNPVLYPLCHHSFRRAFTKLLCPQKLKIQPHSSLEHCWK

| Compound | Ki |
| --- | --- |
| CCCCNc1ccc(C(=O)N2CCCC2CN2CCCC2)cc1 (centres unmarked) | 21.6 nM |
| O=C(c1ccc(Sc2ccncn2)cc1)N1CCCC1CN1CCCC1 (centres unmarked) | 11.7 nM |
